“And” between values parts separate entries of the source, which are not always exact repeats. Equal values may be shown once. Read-outs that look alike come from different tables or passages of the source.
Key:
[1] = target: T1, rat α1β1δε nAChR (Rattus norvegicus, UniProt P09660+P25108+P25109+P25110); assay: Ca2+ flux (FLIPR) agonist/antagonist assay; assay type: cell-based
T1 construct: expressed in transfected cells; host or cells: HEK293 (made by Bristol-Myers Squibb)

[2] = target: HEK293/Human α7 nAChR (Homo sapiens, UniProt P36544); assay: [3H]-A-585539 filtration binding; design: expressed in transfected cells
[3] = target: T2, rat α3β4 nAChR (Rattus norvegicus, UniProt P04757+P12392); assay: Ca2+ flux (FLIPR) agonist/antagonist assay; assay type: cell-based; conditions: FLIPR agonist mode; read-out: agonist EC50 at α3β4 nAChR
T2 construct: expressed in transfected cells; host or cells: HEK293 (made by Bristol-Myers Squibb)

[4] = target: T3, rat α4β2 nAChR (Rattus norvegicus, UniProt P09483+P12390); assay: Ca2+ flux (FLIPR) agonist/antagonist assay; assay type: cell-based; conditions: FLIPR agonist mode; read-out: agonist EC50 at α4β2 nAChR
T3 construct: expressed in transfected cells; host or cells: HEK293 (made by Bristol-Myers Squibb)

[5] = target: T4, HEK293/Human 5-HT3A (Homo sapiens, UniProt P46098); assay: Ca2+ flux (FLIPR) 5-HT3A antagonist assay; assay type: cell-based
T4 construct: expressed in transfected cells; host or cells: HEK293 (made by Bristol-Myers Squibb)
T4 sequence (P46098 24-478): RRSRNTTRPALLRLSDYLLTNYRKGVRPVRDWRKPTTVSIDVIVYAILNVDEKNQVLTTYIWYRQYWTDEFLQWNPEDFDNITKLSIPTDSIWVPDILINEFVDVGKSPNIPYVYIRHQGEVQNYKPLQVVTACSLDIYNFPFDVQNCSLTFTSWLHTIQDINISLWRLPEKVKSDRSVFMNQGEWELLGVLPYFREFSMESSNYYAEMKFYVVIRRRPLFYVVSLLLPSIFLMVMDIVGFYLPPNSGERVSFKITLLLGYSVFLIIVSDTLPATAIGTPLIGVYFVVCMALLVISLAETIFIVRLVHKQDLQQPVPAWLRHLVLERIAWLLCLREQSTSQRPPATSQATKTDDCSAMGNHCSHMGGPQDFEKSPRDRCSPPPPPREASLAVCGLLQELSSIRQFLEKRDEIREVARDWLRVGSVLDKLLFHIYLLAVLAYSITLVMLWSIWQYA
Procedure: Functional activity was examined using Ca^2+-sensitive, dye-based, microfluorometric assays read on the FLIPR Tetra plate reader platform (Molecular Devices, CA, USA). Cells were plated in 384-well black, clear-bottomed Greiner poly-D-lysine coated plates at a density of ~25 K cells/well and incubated at 29°C for 48 h. Prior to assay, media contents were removed and cells incubated in assay buffer containing 5μM final Fluo-4 dye for 90 min. For nAChR assays, the dye-loading buffer was HBSS (#14175 Life Technologies) supplemented with 20 mM HEPES, 0.5 mM CaCl2, 1 mM MgCl2 and 10 μM atropine (final concentration). Test compounds were solubilized in DMSO and serially diluted in NUNC 384-well plates prior to addition of assay buffer (5.3 mM KCl + 140 mM NaCl + 20 mM Hepes + 25 mM CaCl2 + 1 mM MgCl2 + 10 μM atropine final concentration). Compounds diluted in assay buffer were added to the assay plate by the FLIPR and read for approximately 2 min. […] For 5-HT3A antagonist studies, the dye loading and compound diluent buffer was HBSS (#14025 Life Technologies) supplemented with 20 mM HEPES (final concentration) and the concentration of 5-HT used in the assay was 2 μM. Offline transformation of concentration response data was done using a 4 parameter logistic fit using a Bristol-Myers Squibb proprietary informatics software suite.

[6] = target: Rat Brain α7 nAChR (Rattus norvegicus, UniProt Q05941); assay: [3H]-A-585539 filtration binding
[7] = target: T5, HEK293/human α7 nAChR cells (Homo sapiens, UniProt P36544); assay: Whole cell voltage clamp electrophysiology; assay type: cell-based; conditions: for Net Charge (Current Area) normalized to 300 µM ACh / Peak Current normalized to 3 mM ACh: individual cells
T5 construct: expressed in transfected cells
Procedure: Whole-cell voltage clamp studies were conducted on HEK293/rat α7 or HEK293/human α7 nAChR cells. […] Atropine (1 μM) was included in the bathing solution. […] Cells were voltage clamped at a holding potential of -90 mV. Using the Dynaflow microfluidic perfusion system (Cellectricon; flow 26 μl/min) responses to a 300 ms application of ACh or α7 nAChR agonists were measured. Currents were filtered at 2 kHz and sampled at 10 kHz using an EPC-9 amplifier and HEKA Pulse/Patchmaster software. […] The peak current amplitude and net charge crossing the membrane (i.e. the area under the current response curve) induced by agonist application were measured using Clampfit (pClamp Suite) and normalized to the maximal response induced by ACh (3 mM ACh for peak current amplitude and 300 μM ACh for net charge).

[8] = target: α7 nAChR; conditions: read-out: reported Ki; cited from earlier work
[9] = target: T6, human 5-HT3A receptors (Homo sapiens, UniProt P46098); assay: biochemical
T6 sequence (P46098 24-478): T4 sequence (P46098 24-478)

[10] = FLIPR agonist mode, read-out: agonist EC50 at α1β1δε nAChR

T5 sequence (P36544 23-502): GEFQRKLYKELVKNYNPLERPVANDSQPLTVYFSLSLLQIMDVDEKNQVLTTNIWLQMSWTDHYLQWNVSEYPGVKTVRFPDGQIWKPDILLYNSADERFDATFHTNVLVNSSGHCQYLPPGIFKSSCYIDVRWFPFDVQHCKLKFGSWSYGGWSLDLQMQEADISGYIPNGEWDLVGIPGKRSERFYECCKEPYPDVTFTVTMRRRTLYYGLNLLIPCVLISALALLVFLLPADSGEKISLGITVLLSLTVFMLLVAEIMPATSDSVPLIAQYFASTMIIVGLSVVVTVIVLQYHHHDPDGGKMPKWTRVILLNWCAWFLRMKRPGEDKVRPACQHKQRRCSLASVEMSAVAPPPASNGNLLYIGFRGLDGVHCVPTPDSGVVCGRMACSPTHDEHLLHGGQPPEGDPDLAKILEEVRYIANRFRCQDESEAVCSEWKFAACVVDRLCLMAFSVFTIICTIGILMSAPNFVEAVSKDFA
Sequence of HEK293/Human α7 nAChR (P36544 23-502): as above
T1 sequence (P25108 21-457): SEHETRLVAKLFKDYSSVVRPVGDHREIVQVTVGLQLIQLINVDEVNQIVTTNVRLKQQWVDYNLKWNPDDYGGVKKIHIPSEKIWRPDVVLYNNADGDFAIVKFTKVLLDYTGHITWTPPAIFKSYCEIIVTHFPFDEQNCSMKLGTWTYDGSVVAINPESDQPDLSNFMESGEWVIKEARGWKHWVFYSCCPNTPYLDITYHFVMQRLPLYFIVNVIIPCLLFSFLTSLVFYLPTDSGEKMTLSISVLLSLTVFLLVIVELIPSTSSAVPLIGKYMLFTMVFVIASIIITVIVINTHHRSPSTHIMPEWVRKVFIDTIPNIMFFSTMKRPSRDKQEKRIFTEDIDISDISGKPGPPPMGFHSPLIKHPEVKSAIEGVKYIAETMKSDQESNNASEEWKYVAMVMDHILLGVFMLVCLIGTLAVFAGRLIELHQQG
T1 sequence (P25109 24-501): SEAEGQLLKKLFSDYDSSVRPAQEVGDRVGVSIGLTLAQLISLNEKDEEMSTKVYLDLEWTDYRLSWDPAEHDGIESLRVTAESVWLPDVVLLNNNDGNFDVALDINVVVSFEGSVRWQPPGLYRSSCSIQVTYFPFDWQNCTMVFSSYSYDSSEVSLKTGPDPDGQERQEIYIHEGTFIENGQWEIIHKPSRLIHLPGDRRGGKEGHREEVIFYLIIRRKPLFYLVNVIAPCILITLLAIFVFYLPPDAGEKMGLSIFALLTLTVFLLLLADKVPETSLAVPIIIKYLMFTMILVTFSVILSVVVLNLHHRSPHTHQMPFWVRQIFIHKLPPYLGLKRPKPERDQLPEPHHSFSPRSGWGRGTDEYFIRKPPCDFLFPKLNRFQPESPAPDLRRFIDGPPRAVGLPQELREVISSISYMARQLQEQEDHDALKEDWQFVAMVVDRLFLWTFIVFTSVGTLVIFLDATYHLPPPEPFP
T1 sequence (P25110 22-517): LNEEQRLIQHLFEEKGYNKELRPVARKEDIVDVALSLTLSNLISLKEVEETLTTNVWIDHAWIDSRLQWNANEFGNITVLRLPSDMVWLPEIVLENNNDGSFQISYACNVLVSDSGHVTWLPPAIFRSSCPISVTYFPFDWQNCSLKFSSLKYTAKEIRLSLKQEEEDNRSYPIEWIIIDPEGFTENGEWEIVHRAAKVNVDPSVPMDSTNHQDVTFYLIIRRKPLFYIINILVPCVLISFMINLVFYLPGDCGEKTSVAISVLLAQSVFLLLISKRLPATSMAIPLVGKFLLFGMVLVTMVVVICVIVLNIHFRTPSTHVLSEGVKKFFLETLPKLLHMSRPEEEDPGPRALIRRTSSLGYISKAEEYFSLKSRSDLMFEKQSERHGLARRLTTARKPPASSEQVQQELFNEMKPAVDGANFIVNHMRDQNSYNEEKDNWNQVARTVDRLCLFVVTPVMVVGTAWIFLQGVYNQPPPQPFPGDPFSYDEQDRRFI
T1 sequence (P09660 21-494): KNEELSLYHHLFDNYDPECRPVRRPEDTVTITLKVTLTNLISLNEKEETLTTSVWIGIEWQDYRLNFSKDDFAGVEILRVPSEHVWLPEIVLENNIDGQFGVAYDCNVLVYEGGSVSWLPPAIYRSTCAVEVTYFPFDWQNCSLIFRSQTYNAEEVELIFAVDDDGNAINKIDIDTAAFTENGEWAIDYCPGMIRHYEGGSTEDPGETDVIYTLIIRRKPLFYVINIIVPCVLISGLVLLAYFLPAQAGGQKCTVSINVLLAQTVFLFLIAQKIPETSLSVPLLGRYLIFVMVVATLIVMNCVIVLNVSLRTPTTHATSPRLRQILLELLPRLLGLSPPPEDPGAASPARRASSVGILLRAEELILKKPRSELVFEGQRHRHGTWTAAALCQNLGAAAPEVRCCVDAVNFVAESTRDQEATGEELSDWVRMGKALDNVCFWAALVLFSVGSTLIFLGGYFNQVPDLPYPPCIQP
Sequence of Rat Brain α7 nAChR (Q05941 23-502): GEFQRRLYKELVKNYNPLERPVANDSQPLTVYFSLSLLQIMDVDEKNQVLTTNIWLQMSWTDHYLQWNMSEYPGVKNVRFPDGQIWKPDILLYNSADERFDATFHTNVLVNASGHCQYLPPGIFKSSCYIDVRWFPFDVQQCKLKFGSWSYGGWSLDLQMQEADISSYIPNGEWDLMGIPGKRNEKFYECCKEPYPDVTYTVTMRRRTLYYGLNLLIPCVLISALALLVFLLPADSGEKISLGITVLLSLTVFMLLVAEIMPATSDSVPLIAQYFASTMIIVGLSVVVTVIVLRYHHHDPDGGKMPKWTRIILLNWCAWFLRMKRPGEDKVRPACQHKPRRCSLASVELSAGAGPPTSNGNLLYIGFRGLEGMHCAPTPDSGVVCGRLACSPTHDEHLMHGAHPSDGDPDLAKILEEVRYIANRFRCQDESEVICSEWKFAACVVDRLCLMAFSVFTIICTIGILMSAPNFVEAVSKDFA
T3 sequence (P09483 31-630): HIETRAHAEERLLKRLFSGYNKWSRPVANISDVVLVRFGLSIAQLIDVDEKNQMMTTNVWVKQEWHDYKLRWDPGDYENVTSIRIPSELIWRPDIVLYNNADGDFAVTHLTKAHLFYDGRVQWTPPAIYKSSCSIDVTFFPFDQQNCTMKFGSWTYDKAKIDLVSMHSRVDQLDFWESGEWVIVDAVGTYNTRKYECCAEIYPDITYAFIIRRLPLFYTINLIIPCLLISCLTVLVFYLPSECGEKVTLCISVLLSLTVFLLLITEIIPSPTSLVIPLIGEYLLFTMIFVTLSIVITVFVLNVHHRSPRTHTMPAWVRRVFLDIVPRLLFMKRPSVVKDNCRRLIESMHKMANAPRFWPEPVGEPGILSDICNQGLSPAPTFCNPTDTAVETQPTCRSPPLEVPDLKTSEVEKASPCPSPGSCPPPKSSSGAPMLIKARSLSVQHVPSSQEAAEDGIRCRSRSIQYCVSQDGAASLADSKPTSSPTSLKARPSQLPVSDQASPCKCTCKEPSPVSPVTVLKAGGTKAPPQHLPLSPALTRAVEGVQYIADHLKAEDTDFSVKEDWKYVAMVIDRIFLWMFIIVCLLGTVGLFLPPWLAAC
T3 sequence (P12390 25-500): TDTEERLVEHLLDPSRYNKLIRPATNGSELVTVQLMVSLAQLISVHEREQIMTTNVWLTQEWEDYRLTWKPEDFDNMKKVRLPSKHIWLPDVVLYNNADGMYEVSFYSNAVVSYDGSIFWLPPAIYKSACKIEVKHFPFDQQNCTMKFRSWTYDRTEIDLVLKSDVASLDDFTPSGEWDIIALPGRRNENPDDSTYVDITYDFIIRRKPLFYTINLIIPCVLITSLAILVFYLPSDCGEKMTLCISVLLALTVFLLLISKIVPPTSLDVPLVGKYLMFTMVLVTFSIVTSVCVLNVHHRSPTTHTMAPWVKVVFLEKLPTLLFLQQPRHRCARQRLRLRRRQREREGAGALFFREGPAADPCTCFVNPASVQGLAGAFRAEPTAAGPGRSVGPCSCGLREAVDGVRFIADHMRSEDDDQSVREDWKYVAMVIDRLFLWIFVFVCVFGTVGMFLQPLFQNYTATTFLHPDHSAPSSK
T2 sequence (P04757 26-499): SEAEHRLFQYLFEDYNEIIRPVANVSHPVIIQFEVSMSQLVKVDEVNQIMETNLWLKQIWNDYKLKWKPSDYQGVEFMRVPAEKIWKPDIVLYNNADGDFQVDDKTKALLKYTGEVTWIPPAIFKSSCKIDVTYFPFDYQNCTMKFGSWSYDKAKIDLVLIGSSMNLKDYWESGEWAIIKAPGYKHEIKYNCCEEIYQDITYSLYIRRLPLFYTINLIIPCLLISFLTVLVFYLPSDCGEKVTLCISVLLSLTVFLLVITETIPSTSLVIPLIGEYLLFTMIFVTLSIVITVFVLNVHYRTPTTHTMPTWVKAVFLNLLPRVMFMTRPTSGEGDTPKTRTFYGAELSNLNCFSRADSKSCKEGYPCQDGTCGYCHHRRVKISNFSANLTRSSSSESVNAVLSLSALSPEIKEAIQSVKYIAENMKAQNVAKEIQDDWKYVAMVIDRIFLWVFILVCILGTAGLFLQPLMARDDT
T2 sequence (P12392 21-495): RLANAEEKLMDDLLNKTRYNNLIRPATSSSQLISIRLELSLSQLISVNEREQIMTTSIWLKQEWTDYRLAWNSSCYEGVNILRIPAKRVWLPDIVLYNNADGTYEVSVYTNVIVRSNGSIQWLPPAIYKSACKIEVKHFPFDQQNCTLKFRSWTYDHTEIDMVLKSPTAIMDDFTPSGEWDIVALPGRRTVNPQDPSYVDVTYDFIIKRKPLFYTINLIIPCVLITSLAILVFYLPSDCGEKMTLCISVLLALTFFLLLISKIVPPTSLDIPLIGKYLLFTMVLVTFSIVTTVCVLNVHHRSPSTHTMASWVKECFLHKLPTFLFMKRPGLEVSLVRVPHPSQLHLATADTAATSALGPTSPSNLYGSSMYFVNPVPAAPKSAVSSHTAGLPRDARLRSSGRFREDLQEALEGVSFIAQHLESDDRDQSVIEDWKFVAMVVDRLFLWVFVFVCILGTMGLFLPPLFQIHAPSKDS

Clc1ccc(C2CC3CCC2N3)cn1 (racemic) [Epibatidine, (±)epibatidine]
EC50 [1]: > 1000 nM
Ki ([2]; HEK293/Human α7 nAChR Mean ± SD Ki, displacement of [3H]-A-585539): 10.5 ± 1.58 nM
Ki ([2]; HEK293/human α7 nAChR Ki (individual), individual determinations): 9.7 nM (2×) and 12.9 nM and 9.8 nM

CN1CC2CN(c3ccc(-c4ccccc4)nn3)CC2C1.Cl.Cl (stereo not shown) [A-582941, octahydro-2-methyl-5-(6-phenyl-3-pyridazinyl)-pyrrolo[3,4-c]pyrrole dihydrochloride]
EC50 [1, 10]: > 100000 nM
EC50 [3]: > 100000 nM
EC50 [4]: > 100000 nM
Ratio (5-HT3A IC50 / α7 nAChR EC50; functional selectivity) ([5]; FLIPR): 1.1
IC50 ([5]; HEK293/Human 5-HT3A Mean ± SD IC50, Ca2+ flux (FLIPR), antagonism of 2 μM 5-HT): 102 ± 86 nM
IC50 ([5]; Human 5-HT3A IC50 values (individual), FLIPR, individual determinations): 73 nM and 75 nM and 76 nM and 109 nM and 47 nM and 79 nM and 59 nM and 86 nM and 344 nM and 72 nM
Ki ([6]; Rat Brain α7 nAChR Ki (individual)): 23 nM and 20.3 nM
Ki ([6]; Rat Brain α7 nAChR Mean ± SD Ki): 21.7 nM
Ki ([2]; HEK293/Human α7 nAChR Mean ± SD Ki): 82.6 nM
Ki ([2]; HEK293/human α7 nAChR Ki (individual)): 99 nM and 72.5 nM and 76.3 nM

O=C(N[C@H]1CN2CCC1CC2)c1cc2cccc(Cl)c2s1 [EVP-6124, (R)-7-chloro-N-(quinuclidin-3-yl)benzo[b]thiophene-2-carboxamide, reference compound]
EC50 [1, 10]: > 100000 nM
EC50 [3]: > 100000 nM
EC50 [4]: > 100000 nM
IC50 ([5]; Ca2+ flux (FLIPR), antagonism of 2 μM 5-HT, read-out: HEK293/Human 5-HT3A Mean ± SD IC50): 4 ± 2.1 nM
IC50 ([5]; FLIPR, individual determinations, read-out: Human 5-HT3A IC50 values (individual)): 6 nM and 3 nM and 1 nM and 5 nM
Net Charge (Current Area) normalized to 300 µM ACh ([7]; 0.03 µM): 0.1633 and 0.2064 and 0.1153 and 0.1342
Peak Current normalized to 3 mM ACh ([7]; 0.03 µM): 0.0231 and 0.03032 and 0.02328 and 0.01316
Net Charge (Current Area) normalized to 300 µM ACh ([7]; EVP-6124 series 0.1 µM): 0.8405 and 1.081 and 0.8479 and 0.8723
Peak Current normalized to 3 mM ACh ([7]; EVP-6124 series 0.1 µM): 0.0485 and 0.06704 and 0.0971 and 0.0413
Net Charge (Current Area) normalized to 300 µM ACh ([7]; EVP-6124 series 0.3 µM): 1.201 and 1.302 and 1.445 and 1.418
Peak Current normalized to 3 mM ACh ([7]; EVP-6124 series 0.3 µM): 0.1072 and 0.154 and 0.07666 and 0.07157
Net Charge (Current Area) normalized to 300 µM ACh ([7]; EVP-6124 series 1 µM): 1.414 and 1.499 and 1.608 and 1.442
Peak Current normalized to 3 mM ACh ([7]; EVP-6124 series 1 µM): 0.127 and 0.1447 and 0.2547 and 0.1421
Net Charge (Current Area) normalized to 300 µM ACh ([7]; EVP-6124 series 3 µM): 1.22 and 1.197 and 1.304 and 1.07
Peak Current normalized to 3 mM ACh ([7]; EVP-6124 series 3 µM): 0.1877 and 0.2441 and 0.3832 and 0.2558
Net Charge (Current Area) normalized to 300 µM ACh ([7]; EVP-6124 series 10 µM): 0.349 and 0.4055 and 0.3939 and 0.327
Peak Current normalized to 3 mM ACh ([7]; EVP-6124 series 10 µM): 0.2438 and 0.2654 and 0.4627 and 0.3034
Mean ± SEM Net Charge Ymax ([7]; Human, normalized to 300 μM ACh): 1.36 ± 0.09
Mean ± SEM Peak Current Ymaxobs @ 10 μM ([7]; Human, normalized to 3 mM ACh): 0.32 ± 0.05
EC50 ([7]; Human, read-out: Mean ± SEM Net Charge EC50): 70 ± 20 nM
Ki [8]: 10 nM
Ki [9]: 2.5 nM
Ki ([2]; displacement of [3H]-A-585539, read-out: HEK293/Human α7 nAChR Mean ± SD Ki): 3 ± 1.13 nM
Ki ([2]; individual determinations, read-out: HEK293/human α7 nAChR Ki (individual)): 2.2 nM and 3.8 nM

Reference: paper PMC4965148 (PLoS ONE, 2016)
